These are literature values, as cited in patent EP2151446B1, “Process for the preparation of bidentate schiff base ruthenium catalysts containing a salicylaldimine-type ligand” (Rimtec Corporation, priority 2008, dated 2010).

For the series the following is noted: in water.
`O=C([O-])[O-].[Na+].[Na+]` [Na2CO3]: the pKb result was “about 3.69”.

As to `O=C([O-])[O-].[Cu+2]` [CuCO3], the pKb entry was “about 3.69”.

For `O=C([O-])[O-].[K+].[K+]` [Entry K2CO3], the pKb entry is “about 3.69”.

Turning to `O=C([O-])[O-].[Li+].[Li+]` [Li2CO3], the pKb entry is listed as “about 3.69”.
